Laboratory results taken from patent US20220081481A1, “USE OF AGENTS CAPABLE OF INDUCING LC3-ASSOCIATED PHAGOCYTOSIS FOR TREATING SUSTAINED INFLAMMATION IN PATIENTS SUFFERING FROM CHRONIC LIVER DISEASE” (INSERM (INSTITUT NATIONAL DE LA SANTÉ ET DE LA RECHERCHE …, priority 2019, published 2022).

System: PBMC from cirrhotic patients and healthy donors
Experiment: Western blot of LC3-II lipidation in PBMC
Type: cell-based, human
Conditions: 30 μM chloroquine diphosphate, data not shown
Description: Peripheral blood mononuclear cells (PBMC) and monocyte isolation. PBMC were prepared from the blood of cirrhotic patients and healthy donors, using Ficoll density gradient centrifugation (Ficoll Paque™-plus, GE Healthcare, 17-1440-02), as previously described^43.
Cell treatment. Human monocytes, THP1-XBlue™-CD14 (Invivogen, Catalog #thpx-cd14sp) and THP1-FcγRIIA+−CD14+(kindly provided by Novimmune) monocytes were used. When indicated cells were exposed to either 30 μM chloroquine diphosphate (Sigma, C6628), 10 mM 3-Methyladenine (3-MA, Sigma, M9281-100 mg), 10 mM Diphenyleneiodonium chloride (DPI, Sigma, D2926-10 mg), or 10 mg/ml IVIg (Privigen, 100 mg/ml) for 4 hrs at 37° C., as indicated. We also used commercially synthetized Tat-conjugated peptides (30 μM, GeneCust, Dudelange): i) the Tat-p22phox N8 peptide corresponding to eight N-terminal amino acids (3-10) of p22phox that blocks the Rubicon-p22phox interaction^19; ii) its control mutant Tat-N8W9A peptide, in which one tryptophan residue is replaced by Alanine^19). In some experiments, cells were exposed to the preformed complex (10 μg/ml of mouse anti-hFcγRII mAb (clone AT-10, Santa Cruz, sc-13527) F(ab′)2 fragments+20 μg/ml goat anti-mouse anti-kappa F(ab′)2 fragments (Southern Biotech, 1052-01) or to 100 μg/ml of anti-hFcγRIIA mAb F(ab′)2 fragments (clone IV.3), purified as we previously described^26. […]

CCN(CC)CCCC(C)Nc1ccnc2cc(Cl)ccc12 (centres unmarked) [chloroquine, chloroquine diphosphate]
LC3-II lipidation (PBMC from cirrhotic patients): further enhanced
LC3-II lipidation (cells from healthy donors): affected more marginally
